Laboratory results reported in publication PMC4695389, “Non-classical amine recognition evolved in a large clade of olfactory receptors” (eLife, 2015).
Positions count from the first letter of the chain named. “And” between values parts separate entries of the source, which are not always exact repeats. Identical values can stand only once. “Also recorded” adds a separate entry of the source. Like-named read-outs stand apart in the source and are kept apart here.

What was measured:
[1] = molecular target: T1, zebrafish TAAR13c (Danio rerio, UniProt Q5QNP2); assay: cell-based
T1 construct: expressed in transfected cells; host or cells: HEK-293
T1 sequence (Q5QNP2 1-341): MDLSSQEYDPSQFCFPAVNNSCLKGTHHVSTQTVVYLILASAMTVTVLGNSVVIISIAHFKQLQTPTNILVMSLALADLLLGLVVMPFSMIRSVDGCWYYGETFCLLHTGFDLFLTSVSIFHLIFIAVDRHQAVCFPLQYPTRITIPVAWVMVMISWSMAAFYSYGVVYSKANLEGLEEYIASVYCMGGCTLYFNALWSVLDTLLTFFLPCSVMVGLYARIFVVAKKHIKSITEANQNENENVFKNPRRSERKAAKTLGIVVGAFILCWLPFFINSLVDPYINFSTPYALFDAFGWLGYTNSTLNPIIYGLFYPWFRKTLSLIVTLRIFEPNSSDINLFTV

[2] = molecular target: T2, TAAR12i (Danio rerio, UniProt Q5QNN0, F195V/V105Y/V8A); assay: Cre-Seap reporter gene assay, TAAR12i in Hana3A cells; assay type: cell-based, zebrafish
T2 sequence (Q5QNN0 1-340 V8A/V105Y/F195V): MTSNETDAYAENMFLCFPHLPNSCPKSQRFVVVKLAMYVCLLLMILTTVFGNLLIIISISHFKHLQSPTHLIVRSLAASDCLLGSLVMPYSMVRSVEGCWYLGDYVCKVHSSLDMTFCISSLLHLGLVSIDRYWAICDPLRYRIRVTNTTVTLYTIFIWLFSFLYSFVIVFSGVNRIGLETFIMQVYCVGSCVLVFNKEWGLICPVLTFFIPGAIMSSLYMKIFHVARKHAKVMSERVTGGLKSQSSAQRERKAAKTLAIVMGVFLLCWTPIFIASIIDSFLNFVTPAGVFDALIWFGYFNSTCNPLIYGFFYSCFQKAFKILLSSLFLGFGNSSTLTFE

[3] = molecular target: T3, zebrafish TAAR10a (Danio rerio, UniProt Q5QNP6, I156V/V182I); assay: cell-based; conditions: HEK-293 cells, Cre-Seap reporter
T3 sequence (Q5QNP6 1-336 I156V/V182I): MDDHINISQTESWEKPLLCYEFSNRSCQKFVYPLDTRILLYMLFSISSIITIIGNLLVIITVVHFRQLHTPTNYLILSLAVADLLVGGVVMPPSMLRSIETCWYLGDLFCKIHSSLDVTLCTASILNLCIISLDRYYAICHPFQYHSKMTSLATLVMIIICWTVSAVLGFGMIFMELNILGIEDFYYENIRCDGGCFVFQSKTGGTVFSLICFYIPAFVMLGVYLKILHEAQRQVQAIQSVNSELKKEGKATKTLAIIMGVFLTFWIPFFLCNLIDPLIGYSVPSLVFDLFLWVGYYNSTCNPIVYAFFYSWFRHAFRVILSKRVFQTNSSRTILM

[4] = system: goldfish; set-up: method as in Rolen, et al., 2003; Hara, 2006; conditions: ref Rolen, et al., 2003, Hara, 2006; cited from earlier work
[5] = molecular target: T4, zebrafish TAAR13e (Danio rerio, UniProt Q5QNP8, I215V/V266I); assay: cell-based; conditions: HEK-293 cells, Cre-Seap reporter
T4 sequence (Q5QNP8 1-341 I215V/V266I): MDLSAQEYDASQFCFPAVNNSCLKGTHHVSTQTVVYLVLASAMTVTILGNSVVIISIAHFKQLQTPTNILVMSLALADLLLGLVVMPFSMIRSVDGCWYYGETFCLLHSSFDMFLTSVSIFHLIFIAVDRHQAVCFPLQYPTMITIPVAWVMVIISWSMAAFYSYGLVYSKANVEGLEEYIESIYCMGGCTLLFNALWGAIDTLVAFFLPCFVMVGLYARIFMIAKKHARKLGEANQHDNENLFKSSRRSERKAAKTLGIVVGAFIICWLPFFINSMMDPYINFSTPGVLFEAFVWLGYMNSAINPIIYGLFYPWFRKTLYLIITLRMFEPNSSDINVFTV

[6] = molecular target: T5, zebrafish TAAR14d (Danio rerio, UniProt U3JB35); assay: cell-based; conditions: HEK-293 cells, Cre-Seap reporter
T5 sequence (U3JB35 1-328): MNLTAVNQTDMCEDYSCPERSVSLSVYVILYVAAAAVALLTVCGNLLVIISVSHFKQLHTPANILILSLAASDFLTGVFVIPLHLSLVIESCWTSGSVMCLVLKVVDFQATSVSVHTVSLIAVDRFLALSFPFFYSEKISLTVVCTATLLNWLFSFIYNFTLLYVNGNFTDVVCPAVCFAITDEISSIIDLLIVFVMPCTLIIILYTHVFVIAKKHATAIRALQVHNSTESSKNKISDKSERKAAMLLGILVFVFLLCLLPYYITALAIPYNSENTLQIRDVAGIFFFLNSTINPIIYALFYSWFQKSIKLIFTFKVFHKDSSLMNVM

[7] = molecular target: zebrafish TAAR13d (Danio rerio, UniProt Q5QNQ1, I38V/T66P/V128I/V187I); assay: cell-based; conditions: for EC50: HEK-293 cells, Cre-Seap reporter
[8] = molecular target: zebrafish TAAR13a (Danio rerio, UniProt Q5QNP9, F294L/F316L/I267M/N226K/T142R); assay: cell-based; conditions: HEK-293 cells, Cre-Seap reporter
[9] = system: TAAR16c D^5.42A mutant; assay: Cre-Seap reporter gene assay, TAAR16c D^5.42A mutant; assay type: cell-based, zebrafish
[10] = system: zebrafish; set-up: method as in Hussain et al., 2013; conditions: ref Hussain et al., 2013; cited from earlier work
[11] = molecular target: T6, TAAR13c^D112A (Danio rerio, UniProt Q5QNP2, D112A); assay type: cell-based; conditions: any concentration tested, up to 1 mM
T6 construct: expressed in transfected cells; host or cells: HEK-293
T6 sequence (Q5QNP2 1-341 D112A): T1 sequence (Q5QNP2 1-341) with D112A

[12] = molecular target: T7, zebrafish TAAR16f (Danio rerio, UniProt A0AC58GNM0, L317F/N20S/N8I/T68S, form not given); assay type: cell-based; conditions: for EC50: HEK-293 cells, Cre-Seap reporter
T7 sequence (A0AC58GNM0 1-331 N8I/N20S/T68S/L317F): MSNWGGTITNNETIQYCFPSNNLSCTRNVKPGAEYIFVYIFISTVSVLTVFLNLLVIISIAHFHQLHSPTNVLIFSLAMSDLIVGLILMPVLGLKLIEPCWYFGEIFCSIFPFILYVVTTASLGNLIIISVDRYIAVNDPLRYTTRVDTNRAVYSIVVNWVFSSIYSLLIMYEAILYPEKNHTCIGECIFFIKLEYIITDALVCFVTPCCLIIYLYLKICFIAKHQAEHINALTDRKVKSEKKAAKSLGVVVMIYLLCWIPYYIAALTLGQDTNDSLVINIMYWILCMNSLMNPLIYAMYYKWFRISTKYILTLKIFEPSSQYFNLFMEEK

[13] = system: TAAR16f D^5.42A mutant; assay: Cre-Seap reporter gene assay, TAAR16f D^5.42A mutant; assay type: cell-based, zebrafish
[14] = molecular target: zebrafish TAAR16c (Danio rerio, UniProt A0AC58H3H2, N266T); assay type: cell-based
[15] = molecular target: T8, TAAR10b (Danio rerio, UniProt Q5QNN3, A166T/H113R/V182I/V259M); assay: Cre-Seap reporter gene assay, TAAR10b in Hana3A cells; assay type: cell-based, zebrafish
T8 sequence (Q5QNN3 1-336 H113R/A166T/V182I/V259M): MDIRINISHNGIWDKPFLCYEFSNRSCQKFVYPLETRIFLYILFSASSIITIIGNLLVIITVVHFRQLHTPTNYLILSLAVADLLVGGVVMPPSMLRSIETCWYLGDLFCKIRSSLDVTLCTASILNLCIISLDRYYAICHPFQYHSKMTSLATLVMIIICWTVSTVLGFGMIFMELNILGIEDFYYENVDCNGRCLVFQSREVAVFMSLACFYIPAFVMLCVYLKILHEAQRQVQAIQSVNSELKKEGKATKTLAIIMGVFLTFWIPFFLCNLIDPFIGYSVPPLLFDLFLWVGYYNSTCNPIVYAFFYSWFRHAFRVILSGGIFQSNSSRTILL

Sequence of zebrafish TAAR16c (A0AC58H3H2 entry or part of it N266T): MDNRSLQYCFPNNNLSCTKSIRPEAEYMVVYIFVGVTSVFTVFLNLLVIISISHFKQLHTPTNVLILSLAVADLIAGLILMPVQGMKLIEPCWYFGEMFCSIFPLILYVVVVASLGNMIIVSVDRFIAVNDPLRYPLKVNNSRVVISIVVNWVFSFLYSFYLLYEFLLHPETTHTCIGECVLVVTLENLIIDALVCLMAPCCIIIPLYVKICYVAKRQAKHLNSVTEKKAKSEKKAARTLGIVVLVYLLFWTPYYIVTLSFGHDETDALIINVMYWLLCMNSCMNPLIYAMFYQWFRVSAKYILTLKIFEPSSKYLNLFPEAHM
Sequence of zebrafish TAAR13d (Q5QNQ1 entry or part of it I38V/T66P/V128I/V187I): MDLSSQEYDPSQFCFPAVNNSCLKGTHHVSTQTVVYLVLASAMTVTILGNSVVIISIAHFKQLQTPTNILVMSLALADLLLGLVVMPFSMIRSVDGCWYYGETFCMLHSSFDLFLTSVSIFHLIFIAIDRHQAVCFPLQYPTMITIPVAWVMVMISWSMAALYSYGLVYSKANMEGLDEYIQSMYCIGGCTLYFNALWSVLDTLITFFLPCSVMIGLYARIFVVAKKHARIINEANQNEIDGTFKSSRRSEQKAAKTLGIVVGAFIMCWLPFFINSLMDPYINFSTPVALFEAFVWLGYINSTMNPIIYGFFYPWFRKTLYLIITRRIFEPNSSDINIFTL
Sequence of zebrafish TAAR13a (Q5QNP9 1-341 T142R/N226K/I267M/F294L/F316L): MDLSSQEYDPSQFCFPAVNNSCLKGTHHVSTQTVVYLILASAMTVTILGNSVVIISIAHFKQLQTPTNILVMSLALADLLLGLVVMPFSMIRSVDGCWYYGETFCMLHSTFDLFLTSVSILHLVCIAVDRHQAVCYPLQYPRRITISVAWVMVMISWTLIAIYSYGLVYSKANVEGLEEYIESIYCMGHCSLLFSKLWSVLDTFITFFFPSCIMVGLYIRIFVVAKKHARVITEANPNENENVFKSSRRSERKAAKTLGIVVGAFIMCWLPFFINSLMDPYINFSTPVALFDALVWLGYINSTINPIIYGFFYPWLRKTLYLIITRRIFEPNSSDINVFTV

## COc1cc(CCN)ccc1O [3-methoxytyramine]
[1]; any concentration tested
  activation of wild type TAAR13c: failed to activate
[2]
  EC50: 100 µM

## COc1ccc2[nH]cc(CCN)c2c1 [5-methoxytryptamine]
[3]; EC50, TAAR10a
  EC50: ~20 µM

## NCCCCN=C(N)N [Agmatine]
[4]
  feeding-associated pecking behavior: increase feeding-associated pecking behavior
[5]
  EC50: ~1 µM and 1 µM
[6]
  EC50: ~100 µM and 100 µM

## NCCc1c[nH]cn1 [Histamine]
[7]
  EC50: ~7 µM
[8]
  EC50: ~20 µM and 20 µM

## CN1CCCCC1 [N-methylpiperidine]
[9]
  response of TAAR16c with charge-neutralizing mutation of Asp^5.42: completely eliminated responses

## NCCCCCN [cadaverine]
[4]
  feeding-associated pecking behavior: increase feeding-associated pecking behavior
[10]
  avoidance behavior: evoke avoidance behavior
[1]; HEK-293 cells, Cre-Seap reporter, read-out: EC50 (half maximal response), TAAR13c
  EC50: ~10 µM and 10 µM
[11]
  activation of TAAR13c D112A mutant: abrogates cadaverine responsiveness; also recorded: failed to activate

## NCCCN [diaminopropane]
[7]; compared with putrescine
  reduced sensitivity of TAAR13d relative to putrescine: ~ 3,000 fold

## CC(C)CCO [isoamyl alcohol]
[12]
  detection by TAAR16f: failed to detect
  recognition by TAAR16f at 1 mM: not

## CC(C)CCN [isoamylamine]
[12]; 1 mM
  recognition by TAAR16f at 1 mM: recognizes
[12]
  EC50: ~200 µM
[12]; listed as Isoamylamine
  EC50: 200 µM
[13]
  response of TAAR16f with charge-neutralizing mutation of Asp^5.42: completely eliminated responses

## C1CCNCC1 [piperidine]
[14]
  agonism of TAAR16c: partial agonists

## NCCCCN [putrescine]
[4]
  feeding-associated pecking behavior: increase feeding-associated pecking behavior
[10]
  avoidance behavior: evoke avoidance behavior
[7]
  EC50: ~1 µM and 1 µM

## C1CCNC1 [pyrrolidine]
[14]; any concentration tested
  agonism of TAAR16c: partial agonists

## NCCc1c[nH]c2ccc(O)cc12 [serotonin]
[3]; read-out: EC50, TAAR10a
  EC50: ~0.5 µM and 0.5 µM

## C1CCOC1 [tetrahydrofuran]
[14]
  agonism of TAAR16c: did not activate

## NCCc1c[nH]c2ccccc12 [tryptamine]
[15]
  EC50: 50 µM
[3]; read-out: EC50, TAAR10a
  EC50: ~70 µM
